Test results published in patent publication US20240279202A1 (NURIX THERAPEUTICS, INC., priority 2021, published 2024).

molecular target: T1, ITK (Homo sapiens, UniProt Q08881); assay: ITK degradation MSD (Meso Scale Discovery) assay; format: cell-based; set-up: either human Jurkat (Clone E6-1 ATCC TIB-152) or Motl4 (ATCC CRL-1552), were plated; endogenous in cells; host or cells: Jurkat clone E6-1 (ATCC TIB-152) or Molt4 (ATCC CRL-1552); settings: Jurkat or Molt4 cells, 4 or 6 hrs
T1 sequence (Q08881 1-620): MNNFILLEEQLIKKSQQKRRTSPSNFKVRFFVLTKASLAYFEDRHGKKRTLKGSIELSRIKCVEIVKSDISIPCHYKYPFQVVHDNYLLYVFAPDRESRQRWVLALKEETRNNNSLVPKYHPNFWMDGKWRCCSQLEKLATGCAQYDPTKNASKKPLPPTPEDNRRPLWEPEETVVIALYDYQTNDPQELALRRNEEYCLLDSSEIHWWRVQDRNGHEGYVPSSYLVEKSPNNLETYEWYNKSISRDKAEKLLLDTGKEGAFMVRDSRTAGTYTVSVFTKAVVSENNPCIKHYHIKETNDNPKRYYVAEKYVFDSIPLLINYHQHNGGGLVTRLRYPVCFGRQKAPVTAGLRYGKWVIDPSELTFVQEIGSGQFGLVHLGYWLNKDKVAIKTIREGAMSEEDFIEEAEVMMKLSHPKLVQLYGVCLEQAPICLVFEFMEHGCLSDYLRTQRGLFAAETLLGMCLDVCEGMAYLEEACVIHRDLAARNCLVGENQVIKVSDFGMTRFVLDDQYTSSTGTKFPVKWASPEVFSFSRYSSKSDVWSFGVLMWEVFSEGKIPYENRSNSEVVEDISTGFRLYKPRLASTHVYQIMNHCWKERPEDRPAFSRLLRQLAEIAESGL
Experimental: ITK Degradation MSD (Meso Scale Discovery) Assay Compound dilution series (7-point, 5 fold dilutions in DMSO, rows B-H with replicate in Column 1⁄2, 3⁄4, 5⁄6, 7,8, at 2000× the final required concentrations were prepared in 96 well plates (Falcon, cat. no. 353077). Row A, Column 1-8 were control DMSO. The 2000× solutions ranged from 2 mM to 128 nM (final assay concentration range 1 μM to […]). The 2000× solutions were added to cells in […], for a final DMSO concentration of 0.5% and final assay compound concentration of 1×. For the cells, either human Jurkat (Clone E6-1 ATCC TIB-152) or Motl4 (ATCC CRL-1552), were plated at 1×10^6 cells/mL, 100 μL/well ([…]) in complete RPMI (10% FBS, 1% L-glutamine). Cells were incubated for 4 or 6 hrs at 32° C./6% CO2. Following incubation, plates were centrifuged at 1200 rpm for 5 min. supernatant was removed and 50 μL of cell lysis buffer ((MSD Tris lysis buffer (R60TX), Complete Mini EDTA-free protease inhibitor (Sigma 11836170001), Protease Inhibitor Cocktail (Sigma, P2714), Phosphatase Inhibitor Cocktail 2 and 3 (Sigma, P5726 and P0044), and Benzonase (Sigma, E1014)) was added to each well. Plates were sealed and shook at 4° C. for 30 min. Plates were centrifuged and 45 μL was removed for plate assays. Assay plate preparation: Meso Scale Discovery (MSD) multi-array sm spot 96 well plates (Goat anti-Rabbit L^45-RA), were blocked with 3% BSA blocking buffer (3% Bovine Serum Albumin (Sigma A3059)+TBS 0.2% Tween-20) for 1 hr with gentle rocking at room temperature. Plates were then washed with 200 μL of 1× TBST (TBS 0.2% Tween-20) 3 times. After last wash, liquid was removed and 50 μL per well of capture antibody (abcam ITK Y402-ab32507) was added to plates at a 1:1000 dilution in blocking buffer (above). Plates were sealed and rocked at room temperature for 2 hrs. Plates were then washed 3 times with 200 μL of 1× TBST. After last wash, liquid was removed and 45 μL of cell lysate (from above) was added to each plate. Plates were sealed and rocked overnight at 4° C. Next day, cell lysates were removed, and assay plates were washed 3 times with 200 μL of 1× TBST. After last wash, liquid was removed and detection antibody (CST ITK (2F12) #2380) was added at 50 μL per well at a dilution of 1:1000 in blocking buffer. Plates were sealed and rocked at room temperature for 2 hrs. Plates were washed 3 times with 200 uL of 1× TBST. After last wash, liquid was removed, MSD Mouse anti-Rabbit sulfo tag (R32AC-1) was diluted to 1:1000 in blocking buffer. 50 μL was added to each well on the plate. Plates were sealed and incubated at room temperature for 1 hr. Plates were washed 3 times with 200 μL of 1× TBST. After last wash, liquid was removed and 150 μL of 1× MSD Read Buffer T ([…]) was then added to each well for ECL read out. For reading ECL signal, plate is read on a Meso Scale Discovery (MSD) MESO Sector S 600 plate reader. Percent ITK in then calculated as described below. Percent ITK remaining per sample was calculated as follows: [formula] Using Graphpad Prism, % ITK remaining values were plotted as a function of compound concentration. To determine DC50 and Dmax values, resulting curves were fit to the Prism curve-fitting equation “log(inhibitor) vs response-Variable slope (four parameters)” (reported best fit value IC50 used as DC50).

Row | DC50 [nM] | Dmax [%] | SMILES
1 | 0.57 | 86 | C[C@@]12Cc3[nH]nc(C(=O)Nc4cnn([C@H](c5ccccc5)C5CN(CC6CN(c7ccc8c(c7)C(=O)N(C7CCC(=O)NC7=O)C8=O)CCO6)C5)c4)c3C[C@@H]1C2(F)F (stereo partly drawn) [Compound 41, (4aS,5aR)-N-(1-((1S)-(1-((4-(2-(2,6-dioxopiperidin-3-yl)-1,3-dioxoisoindolin-5-yl)morpholin-2-yl)methyl)azetidin-3-yl)(phenyl)methyl)-1H-pyrazol-4-yl)-5,5-difluoro-5a-methyl-1,4,4a,5,5a,6-hexahydrocyclopropa[f]indazole-3-carboxamide]
2 | 3.8 | 92 | C[C@@]12Cc3[nH]nc(C(=O)Nc4cnn([C@H](c5ccccc5)C5CN(C(=O)CCOCCNc6cccc7c6C(=O)N(C6CCC(=O)NC6=O)C7=O)C5)c4)c3C[C@@H]1C2(F)F (stereo partly drawn) [Compound 27, (4aS,5aR)-N-(1-((1S)-(1-(3-(2-((2-(2,6-dioxopiperidin-3-yl)-1,3-dioxoisoindolin-4-yl)amino)ethoxy)propanoyl)azetidin-3-yl)(phenyl)methyl)-1H-pyrazol-4-yl)-5,5-difluoro-5a-methyl-1,4,4a,5,5a,6-hexahydrocyclopropafindazole-3-carboxamide]
3 | 21 | 95 | C[C@@]12Cc3[nH]nc(C(=O)Nc4cnn([C@H](c5ccccc5)C5CN(C(=O)CCOCCOCCOCCOCCOCCNc6cccc7c6C(=O)N(C6CCC(=O)NC6=O)C7=O)C5)c4)c3C[C@@H]1C2(F)F (stereo partly drawn) [Compound 29, (4aS,5aR)-N-(1-((1S)-(1-(1-((2-(2,6-dioxopiperidin-3-yl)-1,3-dioxoisoindolin-4-yl)amino)-3,6,9,12,15-pentaoxaoctadecan-18-oyl)azetidin-3-yl)(phenyl)methyl)-1H-pyrazol-4-yl)-5,5-difluoro-5a-methyl-1,4,4a,5,5a,6-hexahydrocyclopropa[f]indazole-3-carboxamide]
4 | 1.6 | 72 | C[C@@]12Cc3[nH]nc(C(=O)Nc4cnn([C@H](c5ccccc5)C5CN(C(=O)C6CN(C7CCN(c8ccc(NC9CCC(=O)NC9=O)cn8)CC7)C6)C5)c4)c3C[C@@H]1C2(F)F (stereo partly drawn) [Compound 36, (4aS,5aR)-N-(1-((1S)-(1-(1-(1-(5-((2,6-dioxopiperidin-3-yl)amino)pyridin-2-yl)piperidin-4-yl)azetidine-3-carbonyl)azetidin-3-yl)(phenyl)methyl)-1H-pyrazol-4-yl)-5,5-difluoro-5a-methyl-1,4,4a,5,5a,6-hexahydrocyclopropa[f]indazole-3-carboxamide]
5 | 20 | 92 | C[C@@]12Cc3[nH]nc(C(=O)Nc4cnn([C@H](c5ccccc5)C5CN(C(=O)CCOCCOCCOCCOCCOCCOCCOCCOCCNc6cccc7c6C(=O)N(C6CCC(=O)NC6=O)C7=O)C5)c4)c3C[C@@H]1C2(F)F (stereo partly drawn) [Compound 30, (4aS,5aR)-N-(1-((1S)-(1-(1-((2-(2,6-dioxopiperidin-3-yl)-1,3-dioxoisoindolin-4-yl)amino)-3,6,9,12,15,18,21,24-octaoxaheptacosan-27-oyl)azetidin-3-yl)(phenyl)methyl)-1H-pyrazol-4-yl)-5,5-difluoro-5a-methyl-1,4,4a,5,5a,6-hexahydrocyclopropa[f]indazole-3-carboxamide]
6 | 0.88 | 94 | CC(C1CN(C(=O)C2CN(C3CCN(c4ccc5c(c4)C(=O)N(C4CCC(=O)NC4=O)C5=O)CC3)C2)C1)n1cc(NC(=O)c2n[nH]c3c2C[C@@H]2C(F)(F)[C@]2(C)C3)cn1 (stereo partly drawn) [Compound 39, (4aS,5aR)-N-(1-(1-(1-(1-(1-(2-(2,6-dioxopiperidin-3-yl)-1,3-dioxoisoindolin-5-yl)piperidin-4-yl)azetidine-3-carbonyl)azetidin-3-yl)ethyl)-1H-pyrazol-4-yl)-5,5-difluoro-5a-methyl-1,4,4a,5,5a,6-hexahydrocyclopropa[f]indazole-3-carboxamide]
7 | 3.9 | 94 | C[C@@]12Cc3[nH]nc(C(=O)Nc4cnn([C@H](c5ccccc5)C5CN(C(=O)CCOCCOCCOCCNc6cccc7c6C(=O)N(C6CCC(=O)NC6=O)C7=O)C5)c4)c3C[C@@H]1C2(F)F (stereo partly drawn) [Compound 28, (4aS,5aR)-N-(1-((1S)-(1-(3-(2-(2-(2-((2-(2,6-dioxopiperidin-3-yl)-1,3-dioxoisoindolin-4-yl)amino)ethoxy)ethoxy)ethoxy)propanoyl)azetidin-3-yl)(phenyl)methyl)-1H-pyrazol-4-yl)-5,5-difluoro-5a-methyl-1,4,4a,5,5a,6-hexahydrocyclopropa[f]indazole-3-carboxamide]
8 | 44 | 95 | C[C@@]12Cc3[nH]nc(C(=O)Nc4cnn([C@H](c5ccccc5)C5CN(CCOCCOCCOCCOCCOCCNc6cccc7c6C(=O)N(C6CCC(=O)NC6=O)C7=O)C5)c4)c3C[C@@H]1C2(F)F (stereo partly drawn) [Compound 31, (4aS,5aR)-N-(1-((1S)-(1-(17-((2-(2,6-dioxopiperidin-3-yl)-1,3-dioxoisoindolin-4-yl)amino)-3,6,9,12,15-pentaoxaheptadecyl)azetidin-3-yl)(phenyl)methyl)-1H-pyrazol-4-yl)-5,5-difluoro-5a-methyl-1,4,4a,5,5a,6-hexahydrocyclopropa[f]indazole-3-carboxamide]
9 | 25 | 69 | C[C@@]12Cc3[nH]nc(C(=O)Nc4cnn([C@H](c5ccccc5)C5CN(C(=O)CCCCc6cccc7c6CN(C6CCC(=O)NC6=O)C7=O)C5)c4)c3C[C@@H]1C2(F)F (stereo partly drawn) [Compound 32, (4aS,5aR)-N-(1-((1S)-(1-(5-(2-(2,6-dioxopiperidin-3-yl)-1-oxoisoindolin-4-yl)pentanoyl)azetidin-3-yl)(phenyl)methyl)-1H-pyrazol-4-yl)-5,5-difluoro-5a-methyl-1,4,4a,5,5a,6-hexahydrocyclopropa[f]indazole-3-carboxamide]
